Source: a melting point compilation (Tetko et al.; mined from patent text by program, amines drawn as free bases though some values may be those of a salt)
Residues, ends and D or L forms follow the SMILES beside them. *: point of attachment. Boc = CC(C)(C)OC(=O)*; Bn = c1ccc(C*)cc1

| Structure (SMILES) | melting point [°C] |
| --- | --- |
| COc1cc(-c2ncn(-c3ccc(C(F)(F)F)cc3)c2-c2ccc(N(C)C)cc2)cc(OC)c1OC | 215 to 217 |
| CN1C(=O)N(c2nnc(C(C)(C)C)s2)C(=O)C1(C)OC(N)=O (configuration not stated) | 165 |
| CC(C)N(CCN1C(=O)C(=O)c2ccccc21)C1CCCCC1 | 103 to 106 |
| CN1C(=O)CNC(c2cccc(Cl)c2)c2cc(C(=O)c3ccc(Cl)cc3)ccc21 (configuration not stated) | 177 |
| C#CCN(C(C)C)S(=O)(=O)NC(=O)c1cc(-n2c(=O)cc(C(F)(F)F)n(C)c2=S)c(F)cc1Cl | 94 to 105 |
| C=C1C(O)C(CO)OC1n1cc(CC)c(=O)[nH]c1=O (configuration not stated) | 137 to 139 |
| COc1nc(Cl)nc(NC(C#N)C#N)n1 | 164 to 166 |
| CC(C)(C)[Si](C)(C)Oc1ccc2c(c1)OC(c1ccc(O)cc1)c1c-2sc2cc(O[Si](C)(C)C(C)(C)C)ccc12 (configuration not stated) | 174 to 175 |
| OCc1cc2c(Cl)ccc(Br)c2s1 | 141 to 143 |
| Oc1ccc2c(c1)COc1c-2cc2ccc(O)cc2c1-c1cccc(Cl)c1 | 243 to 246 |
| CS(=O)(=O)Nc1cccc(S(=O)(=O)N2CCC(Nc3nc(Nc4cccc(C(F)(F)F)c4)nc(OCC(F)(F)F)n3)CC2)c1 | 249 to 251 |
| N#Cc1cnc2sc(-c3ccccc3C=O)cc2c1Nc1cccc2[nH]ccc12 | 137 to 139 |
| Cn1cc2c(C3C(=O)Nc4ccc(Br)cc43)nc(Cl)nc2n1 (configuration not stated) | > 300 |
| Cc1cc(I)ccc1Nc1c(-c2nnc(N)o2)ccc(F)c1F | 184 |
| NC(=O)N1CCN(c2nn(-c3ccc(F)cc3)c3ccccc23)CC1 | 148 to 150 |
| COc1cccc(-c2nc(C(=O)c3ccc(N)c(OC)c3)n3ccccc23)c1 | 210 |
| CN(C1CCS(=O)(=O)C1)S(=O)(=O)c1ccc(Nc2nccc(Nc3ccc(F)cc3)n2)cc1 (configuration not stated) | 236 to 240 |
| C#CCOc1c(OC)cccc1-c1nc2ncccc2[nH]1 | 238 |
| O=C(O)c1ccccc1Sc1cccc(OCc2ccc3ccccc3n2)c1 | 169 to 171 |
| O=C(Nc1cc(Cl)cc(Cl)c1)C1=C(O)N2CCCN=C2S1 | 270 |
| O=C(N1CC(CCl)c2c1cc([N+](=O)[O-])c1ccccc21)C(F)(F)F (configuration not stated) | 182 |
| NC(=O)C1(c2ccccc2)CCN(Cc2ccccc2)CC1 | 117 to 118 |
| O=C(CC1CCCC1)NC[C@H]1CN(c2ccc3c(c2)CCCc2cnn(C(=O)CC4CCCC4)c2-3)C(=O)O1 | 165 to 167 |
| Clc1ccccc1-c1ccc(-c2ccc(C3=CC=CNC3)cc2)n1CNc1ccccn1 | 163 to 166 |
| O=C(C=Cc1ccc(Cl)c(Cl)c1)C1CC1 | 74 to 76 |
| Cc1cccc(-c2coc3cc(O)c(O)cc3c2=O)c1 | 258 |
| CCCCOc1ccc(-c2cnc(Cl)nc2)cn1 | 117 |

| Structure (SMILES) | melting point [°C] |
| --- | --- |
| CC(C)c1c(S(=O)(=O)c2ccc(O)cc2)n(C)c2ccccc12 | 188 |
| Cc1ccc(S(=O)(=O)Nc2ccc(-c3ccccc3)cn2)cc1 | 187 to 189 |
| N[C@@H](Cc1ccc(O)cc1)[C@H](O)C(F)(F)F | 172 to 174 |
| CC1CCN(S(=O)(=O)Nc2cc(C(c3cc(F)ccc3F)S(=O)(=O)c3ccc(Cl)cc3)c(Cl)cn2)CC1 (configuration not stated) | 215 to 218 |
| O=C1COc2cc3c(cc21)C1(CO3)C(=O)N(CC2CCCO2)c2ccccc21 (configuration not stated) | 142 to 144 |
| Cc1c(NC(=O)c2ccc(OCC3CC3)cc2)ccc2cc(CN3CCC(C)(O)CC3)n(C)c12 | 152 to 155 |
| CC1=C(C)c2cc(Br)ccc2Oc2ccccc21 | 112 to 114 |
| COC(=N)NC(=O)CCl | 123 |
| CC1=C(C)C(=O)C(CCCCCC2=C(C)C(=O)C(C)=C(C)C2=O)=C(C)C1=O | 138 |
| CC(C)C1(CO)Cc2cc(OCC(=O)O)c(Cl)c(Cl)c2C1=O (configuration not stated) | 200 to 202 |
| COc1ccc2c(Cc3ccc(OC4CCCC4N4CCCCC4)cc3)c(-c3ccc(OCCN4CCCC4)cc3)sc2c1 (configuration not stated) | 61 to 64 |
| Cc1ccc(C)c(S(=O)(=O)Nc2onc(C)c2Cl)c1 | 92 to 93 |
| Cc1ccc2c(c1)S(=O)(=O)c1cc(C)ccc1O2 | 175 to 176 |
| N#Cc1[nH]c2ccccc2c1-c1ccccc1 | 137 to 142 |
| Nc1nc(N)nc(-c2ccc(S(=O)(=O)N3CCCCC3)cc2)n1 | > 260 |
| Cc1nnc(-c2ccc3ncn(-c4cc(C(F)(F)F)ccc4Cl)c3c2)o1 | 211 to 212 |
| OCc1cccc(-c2ncc(Br)cn2)c1 | 115 to 116 |
| Cc1cc(-c2c(F)cc3c(=O)c(Cc4ccc(O)cc4)cn(C4CC4)c3c2F)cc(C)n1 | 258 to 259 |
| CC1(C)C(=O)N(CCO)C(=O)N1CN1C(=O)N(CCO)C(=O)C1(C)C | 165 to 166 |
| CC(C)c1ccc(N(Cc2ccc(N(C)C)cc2)C(=O)C2CCCc3c(O)ccc(F)c32)cc1 (configuration not stated) | 209 |
| S=C1Nc2ccc(Cl)cc2CS1 | 217 to 222 |
| Cc1ccsc1-n1ncc(-c2ccc(S(C)(=O)=O)cc2)c(-c2ccc(F)cc2)c1=O | 215 to 217 |
| Cc1ccc(C(C)(C)Cl)cc1C | -20 to -19 |
| Cc1c(C)c2c(c(C)c1O)SCO2 | 131 to 132 |
| O=C1Nc2ccccc2SC1=Cc1ccc(Cl)cc1 | 238 to 240 |
| CCC(CC)Cn1c(=O)c(=O)[nH]c2cc(Cl)c([N+](=O)[O-])cc21 | 232 to 233 |
| N#Cc1nc(Cl)nc(N2CCS(=O)(=O)CC2)c1Cl | 198 to 199 |

Second part, the compound after the results:

| melting point [°C] | Structure (SMILES) |
| --- | --- |
| 175 to 177 | CC(=O)Oc1ccccc1C(=O)N1CCN(C(=O)c2ccccc2OC(C)=O)CC1 |
| 70 to 72 | CNC(=O)C(=O)CCCCCCc1csc(-c2ccccc2)n1 |
| 57 to 58 | C/C(=C\F)CN1C(=O)c2ccccc2C1=O |
| 149 to 150 | CCOC(=O)C(C)(C)Oc1ccc(-c2ccc(CCNC(=O)c3ccc(OC)cc3)cc2)cc1 |
| 151 | COC(=O)c1ccc(C(O)c2cccnc2)cc1 (configuration not stated) |
| 195 to 199 | CC(C)(C)NC(=O)[C@@H]1CCCC[C@H]1C[C@@H](O)[C@H](Cc1ccccc1)NC(=O)[C@H](CC(N)=O)NC(=O)OCc1ccccc1 |
| 90 to 94 | CC(C)CC(NC(=O)C(Cc1ccc(OCc2ccccc2)cc1)NC(=O)OC(C)(C)C)C(=O)O (configuration not stated) (Boc-Tyr(Bn)-Leu-OH; configuration not given here) |
| 145 to 148 | CC(=O)SCC(Cc1ccccc1)C(=O)Nc1ccc(C(=O)O)c(Cl)c1 (configuration not stated) |
| > 285 | CCNC(=O)Cn1c(=O)c(=O)[nH]c2ccc3ccc(-n4c(C)ccc4C)cc3c21 |
| 82 | CCOC(=O)CC(=O)Nc1ccc(Cl)cc1 |
| 54 to 55 | CS(=O)(=O)OCC[C@H](CCCCC(=O)O)OS(C)(=O)=O |
| 270 to 272 | CCn1cc(C=CC(=O)NC2CCNC(=O)C2)nc1-c1ccccc1 (configuration not stated) |
| 197 to 200 | CCOC(=O)c1cn(-c2nc(NCc3ccc(OC)cc3)c(F)cc2F)c2c(Cl)c(F)c(F)cc2c1=O |
| 176 to 177 | CCOC(=O)c1cn(CC)c2cc(N3CCN(C)CC3)ncc2c1=O |
| > 260 | O=C1CCC(N2Cc3c(CNC(=O)Nc4ccc(Cl)cc4)cccc3C2=O)C(=O)N1 (configuration not stated) |
| 85 to 90 | Cc1oc(-c2ccccc2)nc1CCOc1ccc(C[C@H](Nc2ccccc2C(=O)c2ccccc2)C(=O)O)cc1 |
| 169 to 172 | O=C(O)COc1cc(F)c(Br)cc1C(=O)NCc1cccc([N+](=O)[O-])c1 |
| 104 to 106 | O=C(Nc1cccnc1)N1N=CCC1c1ccccc1 (configuration not stated) |
| 179 to 180 | CCOC(=O)CCCc1ccc(N[C@@H](CCC(N)=O)C(=O)O)cc1 |
| 135 to 141 | Cc1ccccc1C(=O)Nc1ccc(C(=O)Cl)cc1 |
| 192 to 194 | CC1=C(C(=O)OC(C)(C)C)C(c2cccc(F)c2F)C(C(=O)OC(C)(C)C)=C(C)N1 |
| 218 to 220 | CCC(CC)c1ccc(Cl)c2nc(Nc3c(C)cc(Br)cc3OC)n(C)c12 |

| melting point [°C] | Structure (SMILES) |
| --- | --- |
| 305 to 308 | Cc1nc2[nH]c3ccccc3c2c(N)c1C(N)=O |
| 263 | COc1ccccc1-c1nc(N)c(C(N)=O)nc1-c1ccc(=O)n(C(C)C)c1 |
| 180 to 182 | CC12CCC3c4ccc(C(=O)O)cc4CCC3C1CCC2C(=O)c1ccco1 (configuration not stated) |
| 54 | CCCc1nnc(-c2ccc(OC)cc2)s1 |
| 194 to 197 | CN1CCC(C(=O)N(C)c2ccc(C(=O)N3CCCCc4ccccc43)cc2)CC1 |
| 113 to 114 | C#Cc1ccc(C(=O)c2ccc3n2CCC3C(=O)OC)cc1 (configuration not stated) |
| 247 to 249 | Cn1cc(-c2cc3cccnc3[nH]2)c2ccc(C(=O)NC(CO)CO)cc21 |
| 63 to 66 | COc1cc(OC)c(C(=O)C=Cc2ccc(SC)cc2)c(OP(=O)(O)O)c1 |
| 180 to 182 | CC(C)c1ccc(N(Cc2cnn(CC(=O)O)c2)C(=O)C2CCCc3c(OCc4ccccc4)cccc32)cc1 (configuration not stated) |
| 109 to 110 | CCOC(=O)c1c(-c2ccc(OC)c(OC)c2)c2cc(C)ccc2n(C)c1=O |
| 175 to 178 | Cc1nc(NC(=O)c2cc(Cl)ccc2F)sc1C(=O)NCc1ccccc1 |
| 199 | COc1ccccc1N(CC(=O)N(C)c1ccccc1)C(=O)CN1C(=O)c2ccccc2C1=O |
| 190 to 191 | COc1ccc(C(=O)Nc2ccc(C(C)(C)CN3CCOC3=O)cc2)cc1OC |
| 128 to 131 | COC(=O)[C@H](Cc1c[nH]cn1)NC(=O)[C@H](Cc1ccccc1)NC(=O)[C@H](Cc1ccccc1)NC(=O)C(C)(C)C |
| 82 to 85 | CNC(=O)COC(=O)N1CCN(CCCc2cccc(-c3cccc(Cl)c3)c2)CC1 |
| 189 | CN(C)S(=O)(=O)c1ccc(C(=O)O)c(C(F)(F)F)c1 |
| 157 to 158 | N#CN=C(Nc1ccc(NCCF)nc1)Oc1ccccc1 |
| 252 to 253 | O=C(O)Cc1c(C(=O)c2ncc[nH]2)[nH]c2cc(Cl)ccc12 |
| 311 to 312 | Cc1c(C(=O)O)sc2c(Br)cccc12 |
| 172 to 174 | CC(=O)c1cc(C(=O)c2ccc3ccccc3c2)c[nH]1 |
| 204 to 206 | N#Cc1ccc(NCC(=O)N2CCC(Cc3ccc(F)cc3)CC2)cc1 |
